≈ marks a conversion by molar mass, not a printed value. Like-named read-outs stand apart in the source and are kept apart here.
Assays:
Format in all cases: cell-based
[1] = system: Collectotrichum graminicola (Cg); assay: In vitro pathogen growth inhibition assay, Cg; conditions: 48 h
In short: (§1)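 Spores in 17% V8 liquid medium, or 1.5 mm Rs mycelial plugs in ¼ PDB, incubated with compound; final concentration checked by OD600 for precipitation. OD readings at 24 and 48 h, blank-subtracted, plus visual ratings; value is concentration giving ≥90% growth inhibition.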

[2] = system: Septoria tritici (St); assay: In vitro pathogen growth inhibition assay, St; conditions: Zymoseptoria tritici, 48 h
In short: as §1

[3] = system: Phytophthora capsici (Pc); assay: In vitro pathogen growth inhibition assay, Pc; conditions: 48 h
In short: (§2)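 Value reported is the compound concentration reaching ≥90% growth inhibition, from OD readings at 24 and 48 h after blank subtraction, confirmed visually. Inoculum was spores diluted in 17% V8 medium, except Rs, using 1.5 mm mycelial plugs in ¼ PDB; actual compound concentration corrected via OD600.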

[4] = system: Rhizoctonia solani (Rs); assay: In vitro pathogen growth inhibition assay, Rs (mycelial plugs); conditions: Rhizoctonia solani, 48 h, mycelial plugs
In short: as §2

[5] = system: Fusarium virguliforme (Fv); assay: In vitro pathogen growth inhibition assay, Fv
In short: as §2

[6] = system: Botrtyis cinerea (Bc); assay: In vitro pathogen growth inhibition assay, Bc; conditions: 48 h
In short: as §1

[7] = system: Fusarium moniliforme (Fm); assay: In vitro pathogen growth inhibition assay, Fm; conditions: Fusarium verticillioides
In short: as §1

[8] = system: Diplodia maydis (Dm); assay: In vitro pathogen growth inhibition assay, Dm; conditions: Stenocarpella maydis, 48 h
In short: as §2

[9] = ≥90% growth inhibition, 48 hours, vs 2% DMSO control, read-out: Compound Concentration (ppm) sufficient for ≥90% inhibition of Cg
[10] = ≥90% growth inhibition, 48 hours, vs 2% DMSO control, read-out: Compound Concentration (ppm) sufficient for ≥90% inhibition of St
[11] = ≥90% growth inhibition, 48 hours, vs 2% DMSO control, read-out: Compound Concentration (ppm) sufficient for ≥90% inhibition of Pc
[12] = ≥90% growth inhibition, 48 hours, vs 2% DMSO control, read-out: Compound Concentration (ppm) sufficient for ≥90% inhibition of Rs
[13] = ≥90% growth inhibition, 48 hours, vs 2% DMSO control, read-out: Compound Concentration (ppm) sufficient for ≥90% inhibition of Fv
[14] = ≥90% growth inhibition, 48 hours, vs 2% DMSO control, read-out: Compound Concentration (ppm) sufficient for ≥90% inhibition of Bc
[15] = ≥90% growth inhibition, 48 hours, vs 2% DMSO control, read-out: Compound Concentration (ppm) sufficient for ≥90% inhibition of Fm
[16] = ≥90% growth inhibition, 48 hours, vs 2% DMSO control, read-out: Compound Concentration (ppm) sufficient for ≥90% inhibition of Dm
[17] = ≥90% inhibition, 48 hours vs 2% DMSO control, read-out: Compound Concentration (ppm) sufficient for ≥90% inhibition of growth, Cg
[18] = ≥90% inhibition, 48 hours vs 2% DMSO control, read-out: Compound Concentration (ppm) sufficient for ≥90% inhibition of growth, St
[19] = ≥90% inhibition, 48 hours vs 2% DMSO control, read-out: Compound Concentration (ppm) sufficient for ≥90% inhibition of growth, Pc
[20] = ≥90% inhibition, 48 hours vs 2% DMSO control, read-out: Compound Concentration (ppm) sufficient for ≥90% inhibition of growth, Rs
[21] = ≥90% inhibition, 48 hours vs 2% DMSO control, read-out: Compound Concentration (ppm) sufficient for ≥90% inhibition of growth, Fv
[22] = ≥90% inhibition, 48 hours vs 2% DMSO control, read-out: Compound Concentration (ppm) sufficient for ≥90% inhibition of growth, Bc
[23] = ≥90% inhibition, 48 hours vs 2% DMSO control, read-out: Compound Concentration (ppm) sufficient for ≥90% inhibition of growth, Fm
[24] = ≥90% inhibition, 48 hours vs 2% DMSO control, read-out: Compound Concentration (ppm) sufficient for ≥90% inhibition of growth, Dm

| SMILES | IC90 [1, 9] [µg/mL] | IC90 [2, 10] [µg/mL] | IC90 [3, 11] [µg/mL] | IC90 [4, 12] [µg/mL] | IC90 [5, 13] [µg/mL] | IC90 [6, 14] [µg/mL] | IC90 [7, 15] [µg/mL] | IC90 [8, 16] [µg/mL] | IC90 [1, 17] [µg/mL] | IC90 [2, 18] [µg/mL] | IC90 [3, 19] [µg/mL] | IC90 [4, 20] [µg/mL] | IC90 [5, 21] [µg/mL] | IC90 [6, 22] [µg/mL] | IC90 [7, 23] [µg/mL] | IC90 [8, 24] [µg/mL] |
| --- | --- | --- | --- | --- | --- | --- | --- | --- | --- | --- | --- | --- | --- | --- | --- | --- |
| COc1ccc(F)cc1[C@H](Cn1c(=O)n([C@@H](C)C(=O)N(C)C(C)C)c(=O)c2c(C)c(-n3cccn3)sc21)OCCC#N [Compound I-243] | 2 (≈ 3.35 µM) | ≥ 50 | > 50 | 2 (≈ 3.35 µM) | 50 (≈ 83.8 µM) | 10 (≈ 16.8 µM) | 2 (≈ 3.35 µM) | 10 (≈ 16.8 µM) |  |  |  |  |  |  |  |  |
| CNC(=O)C(C)(C)n1c(=O)c2c(C)c(-n3nccn3)sc2n(C[C@H](OC(C)C)c2cc(F)ccc2OC)c1=O [Compound I-132] |  |  |  |  |  |  |  |  | ≥ 2 | > 50 | > 50 | ≥ 2 | 0.4 (≈ 0.716 µM) | 2 (≈ 3.58 µM) | 0.4 (≈ 0.716 µM) | 10 (≈ 17.9 µM) |
| COc1ccc(F)cc1[C@H](Cn1c(=O)n(C(C)(C)C(=O)NC(C)C)c(=O)c2c(C)c(-c3ncco3)sc21)OC(C)C [Compound I-018] |  |  |  |  |  |  |  |  | 0.4 (≈ 0.682 µM) | > 10 | > 50 | 0.08 (≈ 0.136 µM) | 0.4 (≈ 0.682 µM) | 0.4 (≈ 0.682 µM) | 0.08 (≈ 0.136 µM) | 0.4 (≈ 0.682 µM) |
| Cc1c(-n2nccn2)sc2c1c(=O)n(C(C)(C)C(=O)NC(C)C)c(=O)n2C[C@H](OCCC#N)c1ccccc1O [Compound I-301] | > 50 | > 50 | > 50 | 10 (≈ 17.7 µM) | ≥ 2 | 10 (≈ 17.7 µM) | 2 (≈ 3.54 µM) | > 50 |  |  |  |  |  |  |  |  |
| COc1ccc(F)cc1CCn1c(=O)n(C(C)(C)C(=O)NC(C)C)c(=O)c2c(C)c(-n3nccn3)sc21 [Compound I-296] | 2 (≈ 3.78 µM) | > 50 | > 50 | 2 (≈ 3.78 µM) | 2 (≈ 3.78 µM) | 2 (≈ 3.78 µM) | 2 (≈ 3.78 µM) | 10 (≈ 18.9 µM) |  |  |  |  |  |  |  |  |
| COc1ccccc1[C@H](Cn1c(=O)n(C(C)(C)C(=O)N2CCCCC2)c(=O)c2c(C)c(-n3nccn3)sc21)OC1CCOCC1 [Compound I-033] |  |  |  |  |  |  |  |  | ≥ 0.4 | > 10 | > 50 | 0.08 (≈ 0.126 µM) | 0.4 (≈ 0.628 µM) | 0.4 (≈ 0.628 µM) | 0.08 (≈ 0.126 µM) | ≥ 0.4 |
| COCCCO[C@@H](Cn1c(=O)n([C@@H](C)C(=O)NC(C)C)c(=O)c2c(C)c(-n3nccn3)sc21)c1cc(F)ccc1OC [Compound I-093] |  |  |  |  |  |  |  |  | 10 (≈ 16.6 µM) | > 50 | > 50 | 2 (≈ 3.32 µM) | 10 (≈ 16.6 µM) | 0.4 (≈ 0.664 µM) | 0.08 (≈ 0.133 µM) | 2 (≈ 3.32 µM) |
| COc1ccc(F)cc1[C@H](Cn1c(=O)n(C(C)(C)C(=O)N2CCCC2)c(=O)c2c(C)c(-n3nccn3)sc21)OCC(C)(C)O [Compound I-073] |  |  |  |  |  |  |  |  | 0.4 (≈ 0.636 µM) | ≥ 10 | > 50 | ≥ 0.4 | 0.4 (≈ 0.636 µM) | 2 (≈ 3.18 µM) | 0.08 (≈ 0.127 µM) | 2 (≈ 3.18 µM) |
| COc1ccc(F)cc1[C@H](Cn1c(=O)n(C(C)(C)C(=O)N2CCCC2)c(=O)c2c(C)c(-n3nccn3)sc21)OCCO [Compound I-130] |  |  |  |  |  |  |  |  | 2 (≈ 3.33 µM) | ≥ 50 | 50 (≈ 83.2 µM) | ≥ 2 | ≥ 0.4 | 2 (≈ 3.33 µM) | 0.4 (≈ 0.666 µM) | ≥ 2 |
| COc1ccc(F)cc1[C@H](Cn1c(=O)n([C@@H](C)C(=O)NC(C)C)c(=O)c2c(C)c(-n3nccn3)sc21)OCCC#N [Compound I-197] | 10 (≈ 17.1 µM) | ≥ 50 | > 50 | 0.4 (≈ 0.685 µM) | ≥ 2 | 0.4 (≈ 0.685 µM) | 0.4 (≈ 0.685 µM) | 10 (≈ 17.1 µM) |  |  |  |  |  |  |  |  |
| Cc1c(-n2nccn2)sc2c1c(=O)n(C(C)(C)C(=O)NC(C)C)c(=O)n2CCc1cc(F)ccc1OC1CCOCC1 [Compound I-331] | 10 (≈ 16.7 µM) | > 50 | > 50 | 10 (≈ 16.7 µM) | 0.08 (≈ 0.134 µM) | 2 (≈ 3.34 µM) | 0.08 (≈ 0.134 µM) | > 50 |  |  |  |  |  |  |  |  |
